What was measured:
[1] = (§1) Pharmacokinetic parameters for Sildernafil following oral administration of Sildernafil citrate tablets (Viagra).; format: ADME, organism-based; conditions: human, in vivo, dosed compound id 36, dosed compound name SILDERNAFIL CITRATE, tissue Plasma
Homo sapiens = experiment: as §1; format: ADME, organism-based; conditions: in vivo, po, dosed compound id 36, dosed compound name SILDERNAFIL CITRATE, tissue Plasma

Tmax ([1]; dietary status Fasting): 1 h
bioavailability [1]: 41%
Vss (Homo sapiens): 105 L
Compound: CCCc1nn(C)c2c(=O)[nH]c(-c3cc(S(=O)(=O)N4CCN(C)CC4)ccc3OCC)nc12.O=C(O)CC(O)(CC(=O)O)C(=O)O [SILDENAFIL CITRATE]

— ChEMBL document CHEMBL3832046, “DailyMed|setid=1da7847b-16e4-4bf1-957f-3894d023b339 | VIAGRA - sildenafil citrate tablet, film coated|PD-Rx Pharmaceuticals, Inc”
